Source: US4914107A, “Method for selectively blocking 5-HT2 receptors” (Eli Lilly and Company, priority 1989, dated 1990)
Read-outs that look alike come from different tables or passages of the source.

Columns and labels:
5HT2 receptors [1] = target: T1, 5HT2 receptors (Rattus norvegicus, UniProt P14842); assay: Antagonism of serotonin-induced contractions in the rat jugular vein (in vitro 5HT2 affinity); type: cell-based
T1 construct: Ring preparations of external rat jugular veins were used; tissue Harlan Sprague-Dawley, Inc., Cumberland, IN (animals); host or cells: external jugular vein rings of male Wistar rats
Protocol: Male Wistar rats (150-300 g) (Harlan Sprague-Dawley, Inc., Cumberland, IN) were killed by cervical dislocation. Ring preparations of external rat jugular veins were used as detailed in [(Cohen et al., J. Pharm. and Exper. Therapeutics 227, 327-332 (1983); Cohen et al., J. Pharm. and Exper. Therapeutics 235, 319-323 (1985).]
Tissues were mounted in organ baths containing 10 ml of modified Krebs' solution of the following composition (millimolar concentrations): NaCl, 118.2; KCl, 4.6; CaCl2.2H2 O, 1.6; KH2 PO4, 1.2; MgSO4, 1.2; dextrose, 10.0; and NaHCO3, 24.8. Tissue bath solutions were maintained at 37° C. and aerated with 95% O2 -5% CO2. Isometric contractions were recorded as changes in grams of force on a Beckman Dynograph with Statham UC-3 transducers and microscale accessory attachments. Tissues were allowed to equilibrate at an initial optimum resting force for 1 to 2 hr before exposure to test compound.
After control contractile responses to serotonin were obtained in the jugular vein, vessels were incubated with appropriate concentrations of the test compound for 1 hr. Responses to serotonin were then repeated in the presence of test compound.
Apparent test compound dissociation constants (KB) were determined for each concentration of test compound according to the following equation: [formula] where (B) is the concentration of the test compound and dose ratio is the ED50 of the serotonin in the presence of the test compound divided by the control ED50. […] The data were also analyzed according to the procedure of Arunlakshana and Schild, Brit. J. Pharmacol. 14, 48-58 (1959) as previously described [Cohen et al., supra (1983)].

[2] = test system: vascular (5HT2) serotonin receptors; assay: Inhibition of the pressor response to serotonin in pithed rats after intravenous test compound; type: in vivo, rat; settings: for effect on pressor response to serotonin: pithed rats
Protocol: Serotonin receptor antagonism was evaluated in pithed Wistar normotensive rats (Charles River, Inc. Portage, MI; 240-374 g) since responses in the pithed preparation are primarily direct vascular effects. Rats were anesthetized with Metofane® (methoxyflurane), carotid arterial and femoral venous catheters were implanted, and the trachea was cannulated. Rats were pithed and ventilated with room air (Cohen et al., supra, 1983; Cohen et al., supra, 1985). An equilibration period of 15 min. was observed before control measurements and i.v. administration of test compound or vehicle. Increasing intravenous doses of serotonin were injected 15 min. after intravenous administration of test compound or vehicle. […] By intravenous administration, 1-isopropyldihydrolysergic acid was only approximately one-third as potent as the ester in blocking vascular 5HT2 receptors.

[3] = test system: vascular (5HT2) serotonin receptors; assay: Duration of inhibition of vascular 5HT2 receptors in pithed rats (serotonin challenge 0.1 mg/kg i.v.); type: in vivo, rat; settings: for inhibition of vascular serotonin receptors: pithed rats; for Increase in mean blood pressure to serotonin: 0.1 mg/kg iv
Protocol: For these studies pithed rats were treated with vehicle or with the acid or the ester at a dose of 0.1 mg/kg, i.v. and challenged with serotonin (0.1 mg/kg i.v.) at various intervals for 2 hrs. after test compound or vehicle administration.

5HT2 receptors [4] = target: T1, 5HT2 receptors; settings: cited from earlier work
[5] = test system: vascular (5HT2) serotonin receptors; assay: Duration of inhibition of vascular 5HT2 receptors in pithed rats (serotonin challenge 0.1 mg/kg i.v.); type: in vivo, rat; settings: 0.3 mg/kg iv
[6] = 15 minutes after test compound, serotonin 0.1 mg/kg iv
[7] = 120 minutes after test compound

T1 sequence (P14842 whole entry): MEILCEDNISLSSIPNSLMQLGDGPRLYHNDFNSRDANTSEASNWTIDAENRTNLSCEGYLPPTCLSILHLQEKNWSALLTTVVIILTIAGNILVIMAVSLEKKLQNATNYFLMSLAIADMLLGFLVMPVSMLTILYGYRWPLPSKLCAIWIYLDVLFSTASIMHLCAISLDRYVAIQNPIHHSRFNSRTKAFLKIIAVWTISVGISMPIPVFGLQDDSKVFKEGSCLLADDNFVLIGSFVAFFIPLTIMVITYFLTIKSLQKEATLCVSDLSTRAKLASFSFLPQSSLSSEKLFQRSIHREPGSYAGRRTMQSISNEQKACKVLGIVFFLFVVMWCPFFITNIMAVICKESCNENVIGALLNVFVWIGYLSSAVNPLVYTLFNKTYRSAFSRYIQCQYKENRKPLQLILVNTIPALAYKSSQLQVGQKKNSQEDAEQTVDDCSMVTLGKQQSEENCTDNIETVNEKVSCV

CC(C)n1cc2c3c(cccc31)C1C[C@@H](C(=O)O)CN(C)[C@@H]1C2 (some centres unmarked) [II, 1-isopropyldihydrolysergic acid]
Kb (5HT2 receptors [1]; Schild plot abscissa intercept, rat jugular vein, read-out: pA2 (converted)): 151 nM
type of antagonism at 5HT2 receptors (5HT2 receptors [1]; jugular vein, Schild slope not different from negative unity): competitive antagonist
Kd (5HT2 receptors [1]; rat jugular vein): ~100 nM
affinity fold lower than the 4-methoxycyclohexyl ester (5HT2 receptors [1]; rat jugular vein): approximately 100 fold
Kb (5HT2 receptors [1]; rat jugular vein, serotonin contraction, apparent dissociation constant, n tissues in parentheses, read-out: -log KB ± SE(n) (converted)): 85.1 nM
ratio II/I (pA2) (5HT2 receptors [1]; ratio from pA2 of II and I): 170
ratio II/I (KB) (5HT2 receptors [1]; ratio of KB of II to I): 78
-Slope (5HT2 receptors [1]; slope of Schild plot, rat jugular vein): 1.29
potency as a 5HT2 antagonist in vivo ([2]; in vivo): relatively high potency
intravenous dose relative to the 4-methoxycyclohexyl ester to block vascular 5HT2 receptors ([2]; intravenous): three-fold higher
potency relative to the ester in blocking vascular 5HT2 receptors ([2]; intravenous administration): approximately one-third
effect on pressor response to serotonin ([2]; intravenous): dose-dependently inhibited
inhibition of vascular serotonin receptors ([3]; 0.1 mg/kg i.v.): marked block of vascular serotonin receptors
inhibition of serotonin vascular response 2 hrs. after administration ([3]; 0.1 mg/kg i.v., 2 hrs. after intravenous administration): marked inhibition of serotonin vascular response was still apparent
Increase in mean blood pressure to serotonin [3, 6]: 29.7 mm Hg
Increase in mean blood pressure to serotonin ([3]; 30 minutes after test compound): 27.8 mm Hg
Increase in mean blood pressure to serotonin ([3]; 60 minutes after test compound): 35.3 mm Hg
Increase in mean blood pressure to serotonin ([3]; 90 minutes after test compound): 41.7 mm Hg
Increase in mean blood pressure to serotonin [3, 7]: 48.1 mm Hg
affinity in vitro for 5HT2 receptors (background statement) (5HT2 receptors [4]): relatively low affinity
Increase in mean blood pressure to serotonin ([5]; 15 minutes after test compound): 3.2 mm Hg
Increase in mean blood pressure to serotonin ([5]; 30 minutes after test compound): 3.4 mm Hg
Increase in mean blood pressure to serotonin ([5]; 60 minutes after test compound): 4.2 mm Hg
Increase in mean blood pressure to serotonin ([5]; 90 minutes after test compound): 9.6 mm Hg
Increase in mean blood pressure to serotonin [5, 7]: 13.6 mm Hg

COC1CCC(OC(=O)C2C[C@@H]3c4cccc5c4c(cn5C(C)C)C[C@H]3N(C)C2)CC1 (some centres unmarked) [I, reference compound]
effect on pressor response to serotonin ([2]; intravenous): dose-dependently inhibited
inhibition of vascular serotonin receptors ([3]; 0.1 mg/kg i.v.): greater inhibition of vascular serotonin receptors than the acid
Increase in mean blood pressure to serotonin [3, 6]: 7.3 mm Hg
Increase in mean blood pressure to serotonin ([3]; 30 minutes after test compound): 12.7 mm Hg
Increase in mean blood pressure to serotonin ([3]; 60 minutes after test compound): 23.9 mm Hg
Increase in mean blood pressure to serotonin ([3]; 90 minutes after test compound): 34.6 mm Hg
Increase in mean blood pressure to serotonin [3, 7]: 34.6 mm Hg
